Measurements from patent US12162839B1, “4,5-bis(4-bromophenyl)-2-(4-bromophenyl)-1-hexyl-1H-imidazole as an antimicrobial compound” (KING FAISAL UNIVERSITY, priority 2023, dated 2024).

Tests used:
Assay type in all cases: cell-based
Settings in all cases: after 10, 20, 40 and 60 minutes at all dilutions 1:100, 1:200, 1:400, 1:800
Pseudomonas aeruginosa = assay: Antimicrobial testing by agar dilution, Pseudomonas aeruginosa
Protocol: (§1) The antimicrobial properties of the 4,5-bis(4-bromophenyl)-2-(4-bromophenyl)-1-hexyl-1H-imidazole (5) were studied by the method of agar dilution. Test solutions of each compound were prepared in concentration of 1% using dimethylformamide as a solvent then they are diluted in physiological solution to obtain the final experimental dilutions 1:100, 1:200, 1:400, 1:800. The effect of these substances were compared with furacillin in a controllable study. The testing microbes used were gram positive bacteria Staphylococcus aureus, gram negative bacteria Escherichia coli, Pseudomonas aeruginosa and Candida albicans fungi were taken. The experiments used for this survey were meat-pentonlu agar (EPA) for cultivation of bacteria and Saburo environment for fungi. Each experiment used 1 ml of test solution on each plate 500 min. Add 2 drops of emulsified with microbes feel. All experimental samples were taken from the agar after 10, 20, 40, 60 minutes in the environment on the basis of Patrk planted. Bacteria were cultivated at a temperature of 37° C. for 1 day and the mushroom was kept in a thermostat for […] at a temperature of 28° C. in the. Then results were checked.

Candida albicans = assay: Antimicrobial testing by agar dilution, Candida albicans
Protocol: as §1

Staphylococcus aureus = assay: Antimicrobial testing by agar dilution, Staphylococcus aureus
Protocol: as §1

Escherichia coli = assay: Antimicrobial testing by agar dilution, Escherichia coli
Protocol: as §1

Measured: inhibition activity (in words)

CCCCCCn1c(-c2ccc(Br)cc2)nc(-c2ccc(Br)cc2)c1-c1ccc(Br)cc1 [4,5-bis(4-bromophenyl)-2-(4-bromophenyl)-1-hexyl-1H-imidazole]
highest inhibition activity: Pseudomonas aeruginosa | Candida albicans | Staphylococcus aureus | Escherichia coli
